Consider one compound from patent US5292498A, “Method of treating lung disease with uridine triphosphates” (The University of North Carolina At Chapel Hill, priority 1991, dated 1994).

Experiment [1] concerns CF nasal epithelial cells. Nature of the experiment: Intracellular calcium [Ca^2+ ]i in single CF nasal epithelial cells (Fura-2). As to conditions: FIG. 6. Format: cell-based, human. The method, then: Freshly excised human nasal epithelium from normal or cystic fibrosis subjects was grown in primary culture in F-12, hormone-supplemented medium in accordance with known procedures. See R. Wu et al., Am. Rev. Respir. Dis. […] For [Ca^2+ ]i measurements, cultures were grown on non-fluorescent vitrogen substrates on glass coverslips. Cultures for electrophysiologic studies were grown to confluence on permeable collagen matrix supports (CMS), allowing addition of agonists to the basolateral or apical surface of the epithelial sheet.
Primary human nasal epithelial cells grown to confluence on vitrogen coated coverslips were loaded with a final concentration of 3 μM Fura-2/AM at 37° C. for 30 minutes. The cells were then washed in NaCl Ringer and mounted in a chamber for measurements of fluorescence. To reduce the rate of leakage of Fura-2 from the cell into the extracellular space and avoid time-dependent compartmentalization of the probe, all measurements of [Ca^2+ ]i were performed at 25° C.
Measurements of [Ca^2+ ]i in single human nasal epithelial cells were obtained with a modular microspectrofluorimeter (SPEX Industries, Inc., Edison, N.J.) attached to a Zeiss Axiovert IM 35 microscope. […] The fluorescent signal from a single cell was measured with a photometer equipped with a pinhole (spot diameter of 3-5 μm) that excluded signals from adjacent cells. […]
(Calcium assays in cells follow changes in intracellular calcium, usually with a dye or a luminescent sensor.)

The subject of experiment [2] is normal human nasal epithelium. As to the kind of experiment: Bioelectric studies (short circuit current, Isc) of normal human nasal epithelium in Ussing chambers. Format: cell-based. The method, then: (§1) Freshly excised human nasal epithelium from normal or cystic fibrosis subjects was grown in primary culture in F-12, hormone-supplemented medium in accordance with known procedures. See R. Wu et al., Am. Rev. Respir. Dis. 132, 311-320 (1985). For [Ca^2+ ]i measurements, cultures were grown on non-fluorescent vitrogen substrates on glass coverslips. Cultures for electrophysiologic studies were grown to confluence on permeable collagen matrix supports (CMS), allowing addition of agonists to the basolateral or apical surface of the epithelial sheet.
(§2) Confluent monolayers of primary human nasal epithelium were mounted in modified Ussing chambers in accordance with known procedures. See, e.g., R. Boucher et al., J. Physiol. (Lond.) 405, 77-103 (1988); M. Knowles et al., Science 221, 1067-1070 (1983). The studies described below were performed under short circuit current conditions at 37° C., and in some studies, amiloride was added to the apical bath (10^-4 M) to block transepithelial sodium transport. Changes in transepithelial potential difference (Vt), resistance (Rt) and short circuit current (Isc) were measured in response to addition of various nucleotides. Each cultured preparation was exposed to only one concentration of an agonist on either the basolateral or apical surface to avoid the tachyphylaxis observed in preliminary cumulative dose response studies. To construct concentration-effect relationships of responses to nucleotides, it was assumed that the same maximum response to an agonist could be induced from each tissue culture preparation from the same individual.
The effects of extracellular ATP on normal human nasal epithelium were investigated employing bioelectric measurements of ion transport activity when the nucleotide was applied to either the apical or basolateral membrane. […] In general, the change in Isc induced by application of ATP to the apical or the basolateral side returned to baseline or below within 5 minutes after addition of agonist. […] Apical pretreatment with amiloride (10^-4 M) removes active Na^+ absorption as a component of the Isc so that the residual Isc reflects a Cl^- secretory current (R. Boucher et al., J. Clin. Invest. 78, 1245-1252 (1986); N. Willumsen et al., Am. J. Physiol. 256, C1033-C1044 (1989)).
A concentration-effect relationship was found when ATP was applied to normal human nasal epithelium under basal conditions (data not shown). Comparisons were made between responses of tissues from different donors based on the peak change in Isc following ATP application. The curve describes the mean peak change in Isc in response to log increasing concentrations of ATP applied to the apical or basolateral surface.
Concentration-effect relationships were also found for ATP applied to the apical or basolateral membrane of amiloride-pretreated tissues (data not shown). Again, the nucleotide's effect on ion transport was examined as the mean peak change in Isc after ATP application.
(§3) The purinergic receptor subtype(s) linked to regulation of ion transport of human nasal epithelium were characterized by obtaining concentration-effect relationships for a variety of purine and pyrimidine agonists in preparations derived from normal and CF patients. We characterized receptor subtype(s) on the […] surface by measuring nucleotide effect on basal Na^+ transport rates. Because therapies designed to induce Cl^- secretion might best be delivered by the aerosol route, receptor subtype characterization on the apical barrier was performed in the presence of amiloride. The effect of extracellular nucleotides on ion transport is reported as the percent change in Isc from control values when applied to the basolateral or apical surface of the culture. Basal pre-agonist currents were similar for tissues in each concentration group.

Experiment [3] deals with CF human nasal epithelium. As to the kind of experiment: Bioelectric studies (Isc) of cystic fibrosis (CF) human nasal epithelium. Format: cell-based. As to conditions: for Isc response tracing: 10^-4 M, amiloride-pretreated (10^-4 M). Here is the method: as §1, §2, §3
Availability of Cystic Fibrosis (CF) tissues is limited, and our investigation of effects of nucleotides was restricted to examining regulation of Cl^- secretion rates and [Ca^2+ ]i levels by ATP and UTP.

Setting [4] is: Homo sapiens, read-out: maximum mean % change in Isc.

For the compound `Nc1ncnc2c1ncn2[C@@H]1O[C@H](COP(=O)(O)OP(=O)(O)OP(=O)(O)O)[C@@H](O)[C@H]1O` [ATP, adenosine triphosphate], the “[Ca^2+ ]i response in CF tissues” value in experiment [1] was “Increases in [Ca^2+ ]i”. The “increase in Isc at 10^-3 M” value in experiment [2] (10^-3 M, basolateral membrane (not seen with apical application), basal conditions) is on record as “A large increase in Isc”. In addition, the “change in Isc on application to either surface” value in experiment [2] (ATP, apical or basolateral surface, no amiloride) is listed as “rapidly stimulated an increase in Isc”. Further, the “time for change in Isc to return to baseline or below” value in experiment [2] (ATP, apical or basolateral, basal conditions) was at most 5 min. Moreover, the figures for the Emax in experiment [2] (setting [4]) and in experiment [3] (setting [4]) were 51 ± 8% and 14 ± 3%, respectively. In experiment [2] (amiloride-pretreated tissues), the “Cl^- secretory response” value is “A typical Cl^- secretory response”. Also, the “change in ion transport, amiloride-pretreated versus basal state” value in experiment [2] (amiloride-pretreated tissues) is reported as “routinely smaller than that observed in tissues in the basal state”. In addition, in experiment [2] (amiloride-treated tissues, apical or basolateral), the “character of log concentration-effect curves” value was “sigmoidal in character”. The “duration of prolonged increase in Isc above baseline” value in experiment [2] (apical surface following amiloride pretreatment, most tissues) is over 10 min. The “rank order of potency for Cl^- secretion” value in experiment [2] (apical surface, amiloride-pretreated, FIG. 2) is “ATP≥UTP>ATPγS>ADP>2MeSATP>ADPβS”. Also, the “effectiveness, apical versus basolateral” value in experiment [2] (basal conditions, 10^-7 to 10^-4 M) is reported as “approximately equal”. Further, the “time for ATP induced increase in Isc to return to baseline” value in experiment [2] (basolateral addition, amiloride-pretreated) was at most 5 min. In addition, in experiment [2] (basolateral surface, 10^-3 M drug considered), the “character of concentration-effect curve including 10^-3 M” value was “biphasic in character”. The “character of log concentration-effect curve” value in experiment [2] (basolateral surface, 10^-7 to 10^-4 M) is “sigmoidal character”. In experiment [2] (basolateral surface, FIG. 1), the “rank order of potency for increase in Isc” value is on record as 2MeSATP>UTP≥ATP>ATPγS>ADP>ADPβS. The “oscillations in Isc” value in experiment [2] (following ATP) was “frequently observed”. The Isc response tracing result in experiment [3] (apical surface, FIG. 4A) is recorded as “Cl^- secretion in response to ATP”; in experiment [3] (apical surface, FIG. 4B) it was “opposite polarity”. Also, the “change in Isc over basal levels” value in experiment [3] (apical surface, amiloride-pretreated CF tissues) is “Most tissues exhibited an increase in Isc over basal levels”. Further, the “pattern of Isc response” value in experiment [3] (apical, amiloride-pretreated CF tissues) is listed as “two distinct patterns of response”. In addition, in experiment [3] (apical, amiloride-pretreated CF tissues, FIG. 4B), the “CF tissues responding with a change to opposite polarity of Isc” value is on record as “approximately 30%”. Further, the “Cl^- secretion (amiloride-resistant Isc)” value in experiment [3] (basolateral addition, CF tissues) is given as “Only small changes in Cl^- secretion”.
